# Data published in PubChem BioAssay (NCI).
# Values joined by “and” are separate entries in the source; they are usually repeats but may differ in a detail not shown here. Equal values may be shown once.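 Grown in 96-well plates, cells were treated for 48 hours with each compound at five concentrations. Insufficient inhibition: endpoint recorded as highest concentration tested. At the GI50, growth is halved. At the TGI there is no net growth.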
# Legend:
# Assay in all cases: inhibition of tumour cell growth, NCI panel, 48 h
# T-47D breast = tested on: T-47D breast
# PC-3 prostate = tested on: PC-3 prostate
# DLD-1 colon = tested on: DLD-1 colon
# HOP-18 NSCLC = tested on: HOP-18 NSCLC
# DMS 114 small cell lung = tested on: DMS 114 small cell lung
# LXFL 529 NSCLC = tested on: LXFL 529 NSCLC
# DMS 273 small cell lung = tested on: DMS 273 small cell lung
# MDA-N = tested on: MDA-N
SMILES,GI50 (T-47D breast),TGI (T-47D breast),GI50 (PC-3 prostate),TGI (PC-3 prostate),further results
COc1ccc(/C=C/C(=O)c2ccc(Nc3nc(Nc4ccc(F)cc4)nc(Nc4ccc(Cl)cc4)n3)cc2)cc1,72.6 µM,> 100 µM,30.6 µM,> 100 µM,–
C=C1C(=O)c2cc3c(cc2C(c2cc(OC)c(OC)c(OC)c2)[C@@H]1C(=O)O)OCO3 (some centres not stated),–,–,–,–,TGI (DLD-1 colon): > 100 µM; TGI (HOP-18 NSCLC): > 100 µM; TGI (DMS 114 small cell lung): > 100 µM; TGI (LXFL 529 NSCLC): > 100 µM
N#Cc1c(-c2ccccc2)cc(-c2cccs2)c(C#N)c1N,–,–,–,–,TGI (DLD-1 colon): > 100 µM; TGI (DMS 273 small cell lung): > 100 µM; TGI (HOP-18 NSCLC): 0.0879 µM; TGI (LXFL 529 NSCLC): > 100 µM
OCCCc1cnco1,–,–,–,–,TGI (DLD-1 colon): > 100 µM; TGI (DMS 273 small cell lung): > 100 µM; TGI (HOP-18 NSCLC): > 100 µM; TGI (LXFL 529 NSCLC): > 100 µM
O=C1NC(=O)C(c2ccccc2)=C1Nc1ccccc1,> 25 µM,> 25 µM,> 25 µM,> 25 µM,–
O=C(/C=C/c1cccc(S(=O)(=O)Nc2ccccc2)c1)NO,0.227 µM and 0.144 µM,–,0.557 µM and 0.151 µM,51.2 µM and 21.8 µM,–
CCCCCCc1cc2cc(-c3csc(/C=C/c4ccccc4)n3)c(=O)oc2cc1O,13.9 µM,> 100 µM,5.39 µM,34.4 µM,–
O=C(O)c1cn(C2CC2)c2cc(N3CCN(C(=O)Nc4nc(-c5ccc(Br)cc5)cs4)CC3)c(F)cc2c1=O,1.57 µM,> 100 µM,–,–,–
O=C(c1cccs1)c1nc2cc(Cl)ccc2[n+]([O-])c1C(F)(F)F,–,–,71.4 µM,> 100 µM,–
CCN1C(=O)N(CC)C2C1NC(=S)N2/N=C/C=C/c1ccccc1OC (configuration not stated),34.6 µM,> 100 µM,0.0411 µM,> 100 µM,–
O=C1C(=C([O-])c2ccccc2)C(=O)c2ccccc21.O=C1C(=C([O-])c2ccccc2)C(=O)c2ccccc21.[Co+2],–,–,–,–,GI50 (DLD-1 colon): > 100 µM; TGI (DLD-1 colon): > 100 µM; GI50 (HOP-18 NSCLC): 54.4 µM; TGI (HOP-18 NSCLC): > 100 µM
O=C1/C(=C\c2ccccc2)CN(C(=O)c2ccccc2)C/C1=C\c1ccccc1,4.93 µM,19.9 µM,2.27 µM,7.86 µM,–
COc1ncc(-c2ccc3nccc(C#CCN4CCN(S(C)(=O)=O)CC4)c3c2)cc1NS(=O)(=O)c1ccc(F)cc1F,< 0.01 µM,0.0178 µM,0.058 µM,10.9 µM,–
CN(CSc1ccc(Cl)cc1)c1ccc(CSc2ccc(Cl)cc2)cc1,4.22 µM,72 µM,3.27 µM,25.8 µM,–
NCCCNc1nc2ccc(Cl)cc2c2c(=O)c3cc(F)ccc3sc12,9.65 µM,34.3 µM,3.43 µM,14.2 µM,–
C=C(CN1CCN(c2ccccc2C(F)(F)F)CC1)c1ccc(C(=O)Nc2ccccc2N)cc1,7.67 µM,> 100 µM,1.91 µM,12 µM,–
N#Cc1c2ccccc2c2nnc3ccc(C(F)(F)F)cc3n12,> 100 µM,> 100 µM,61.1 µM,> 100 µM,–
COC1=CC(=O)OC(/C=C(C)/C=C/C2=C(C)CCCC2(C)C)C1 (configuration not stated),–,–,–,–,TGI (DLD-1 colon): > 100 µM; TGI (DMS 273 small cell lung): > 100 µM; TGI (DMS 114 small cell lung): > 100 µM; TGI (LXFL 529 NSCLC): > 100 µM
O=C1c2cccnc2C(=O)c2c1c(C(=O)OCCc1ccccn1)c1ccccn21,1.71 µM,8.39 µM,0.0563 µM,6.57 µM,–

SMILES,GI50 (T-47D breast),TGI (T-47D breast),GI50 (PC-3 prostate),TGI (PC-3 prostate),further results
COc1ccc(C2CC(c3ccc4ccccc4c3)=NN2c2nc(O)c(C3=c4cc(OC)ccc4=NC3=O)s2)cc1 (configuration not stated),0.0401 µM,0.184 µM,0.0675 µM,0.334 µM,–
Brc1ccc(Nc2nc3ccccc3nc2Nc2ccc(Br)cc2)cc1,0.936 µM,7.09 µM,0.637 µM,10.4 µM,–
O=C(Nc1ccc(I)cc1)c1cccc([N+](=O)[O-])c1O,2.98 µM,12.6 µM,2.72 µM,14.6 µM,–
N#Cc1ccc(C(C2C(=O)NC(=O)NC2=O)C2C(=O)NC(=O)NC2=O)cc1,–,–,–,–,TGI (DMS 273 small cell lung): > 100 µM; TGI (LXFL 529 NSCLC): > 100 µM
c1ccc(-c2cn(-c3ccccc3)c(-c3ccccc3)n2)cc1,9.3 µM,26.2 µM,17.1 µM,45.6 µM,–
COc1cc2c3c(n(CCCN4CCCNCC4)c(=O)c2cc1OC)-c1cc2c(cc1C3=O)OCO2,0.984 µM,7.98 µM,1.33 µM,9.97 µM,–
O=[N+]([O-])/C=C/c1cc2ccc3ccccc3c2[nH]1,–,3.89 µM,–,3 µM,TGI (MDA-N): 4.79 µM
Cn1c(NCC(CN2CCCC2)OC(=O)c2ccccc2)cc(=O)n(C)c1=O (configuration not stated),> 100 µM,> 100 µM,> 100 µM,> 100 µM,–
NC(=O)CCc1ccccc1Oc1nccc(-c2c(-c3ccc(F)cc3)ncn2C2CCNCC2)n1,> 25 µM,> 25 µM,> 25 µM,> 25 µM,–
COc1cc(/C=C/C(=O)c2c(C)nc3ccccc3c2C)ccc1OCCCCOc1cc2c(cc1OC)C(=O)N1CCC[C@H]1C=N2,0.333 µM,1.36 µM,0.296 µM,1.35 µM,–
NS(=O)(=O)c1ccc(N=C2C(=O)Nc3ccccc32)cc1,–,> 100 µM,–,> 100 µM,TGI (MDA-N): > 100 µM
COC(=O)c1nc(C(=O)OC)c2c([nH]c3ccccc32)c1C(=O)OC,–,–,–,–,TGI (DLD-1 colon): > 100 µM; TGI (DMS 273 small cell lung): > 100 µM; TGI (DMS 114 small cell lung): > 100 µM; TGI (LXFL 529 NSCLC): > 100 µM
C=C1C(=O)OC2CC1C(OC(C)=O)C/C(C)=C/CC/C(C)=C\CCC2(C)O (configuration not stated),–,14.6 µM and 62.7 µM,6.08 µM and 19.9 µM,19.6 µM and > 100 µM,TGI (MDA-N): 15.9 µM and 12.3 µM
O=C(Cc1ccccc1)N/N=C(/c1nc2ccc([N+](=O)[O-])cc2[nH]c1=O)C(O)c1ccccc1Cl (configuration not stated),–,–,–,–,TGI (DLD-1 colon): > 100 µM; TGI (HOP-18 NSCLC): > 100 µM; TGI (LXFL 529 NSCLC): > 100 µM
CS(=N)(=O)CCC(N)P(=O)(O)O (configuration not stated),–,> 100 µM,–,> 100 µM,TGI (MDA-N): > 100 µM
O=C(Cc1ccc(Nc2ccnc(C(F)(F)F)c2)cc1)N/N=C/c1ccccc1O,3.26 µM,17.7 µM,1.09 µM,16.6 µM,–
C#CCn1c(=O)c2cccnc2n(CC#C)c1=O,–,–,–,–,TGI (DLD-1 colon): > 100 µM; TGI (DMS 273 small cell lung): > 100 µM; TGI (HOP-18 NSCLC): > 100 µM; TGI (LXFL 529 NSCLC): > 100 µM
O=C(O)CNCCc1ccccc1,–,> 100 µM,–,> 100 µM,TGI (MDA-N): > 100 µM
CCCOc1ccc(/C=N/Nc2cc(C)nc3ccc(Cl)cc23)cc1,1.71 µM,3.62 µM,1.53 µM,3.13 µM,–

SMILES,GI50 (T-47D breast),TGI (T-47D breast),GI50 (PC-3 prostate),TGI (PC-3 prostate),further results
C/C(=N\O)c1cccc(Nc2cc(-c3ccccc3)nc3c(O)cccc23)c1,2.36 µM,30.5 µM,1.94 µM,19.9 µM,–
N#C/C(=C\c1ccc(F)cc1)n1nc2cccc(F)c2n1,4.2 µM,> 100 µM,4.68 µM,> 100 µM,–
CC(C)OCc1cc(CN2CCN(c3cccc(Cl)c3)CC2)c(O)c2ncccc12,0.556 µM,18.4 µM,0.525 µM,16.9 µM,–
Cn1c(=O)c2[nH]c(CCCc3ccc([N+](=O)[O-])cc3)nc2n(C)c1=O,–,> 100 µM,–,> 100 µM,TGI (MDA-N): > 100 µM
Oc1ccc(Cc2ccc(O)c(C3CC(c4ccc(Cl)cc4)=NN3)c2)cc1C1CC(c2ccc(Cl)cc2)=NN1 (configuration not stated),3.15 µM,> 39.7 µM,3.67 µM,> 100 µM,–
O=c1[nH]c(F)nc2c1ncn2C1OC(CO)C(O)C1O (configuration not stated),> 100 µM,> 100 µM,> 100 µM,> 100 µM,–
O=C(/C=C/c1nnc2n(Cc3ccccc3)c(=O)c3c4c(sc3n12)CCCC4)c1ccccc1,–,–,1.42 µM,4.44 µM,–
CCOC(=O)[C@@H](C)C[C@H](Cc1ccccc1)NC(=O)c1csc([C@@H](C[C@H](C(C)C)N(C)C(=O)[C@@H](NC(=O)[C@H]2C[C@H](O)CCN2C)C(C)C)OC(C)=O)n1,–,–,0.00187 µM,> 16.7 µM,–
CCN(CC)CC(O)COc1c(Br)c(Br)c(Br)c2c1OC(C)(C)C2 (configuration not stated),10.6 µM,41 µM,2.81 µM,11.5 µM,–
COc1cc2c(cc1OCCCCn1c(-c3cccs3)nc3ccccc31)N=C[C@@H]1CCCN1C2=O,0.503 µM,3.65 µM,–,–,–
NC(=N\N=C/c1ccc(Cl)cc1Cl)/C(N)=N\N=C/c1ccc(Cl)cc1Cl,1.35 µM,> 76.4 µM,> 100 µM,> 100 µM,–
O=C(O)c1ccc(Oc2nc3ccccc3s2)cc1,–,> 100 µM,–,> 100 µM,–
O=Cc1ccc(-c2ccc(-c3ccc(C=O)o3)[se]2)o1,> 100 µM,> 100 µM,> 100 µM,> 100 µM,–
CCC(C)CC(C)C(=O)c1c(O)ccn(O)c1=O (configuration not stated),4.12 µM,76.9 µM,1.33 µM,> 100 µM,–
FC(F)(F)c1cc(-c2ncn(/C=C\c3nnco3)n2)cc(C(F)(F)F)c1,0.0567 µM,> 41.5 µM,0.093 µM,> 36.9 µM,–
CC1(C)OC2C(CO)OC(n3ccc(N)nc3=O)C2O1 (configuration not stated),–,> 100 µM,–,> 100 µM,TGI (MDA-N): > 100 µM
CC(=O)N(CCN1C(=O)c2ccccc2C1=O)CCN1C(=O)c2ccccc2C1=O,–,–,–,–,TGI (DLD-1 colon): > 100 µM; TGI (DMS 273 small cell lung): > 100 µM; TGI (DMS 114 small cell lung): > 100 µM; TGI (LXFL 529 NSCLC): > 100 µM
N#Cc1c2ccccc2c2nnc3ccccc3n12,> 100 µM,> 100 µM,63.5 µM,> 100 µM,–
